# Data as given in PubChem BioAssay (NCI).
# Where “and” joins values, the source holds several entries; their conditions need not be identical. Equal entries are not always repeated.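 Interpolation was linear, between the two tested concentrations surrounding the appropriate level; five concentrations were tested over 48 hours in 96-well plates. GI50: concentration for 50% inhibition of growth. TGI is the concentration that stops growth completely.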
# Experiments:
# Assay in all cases: NCI anticancer screen, dose series, 48 h
# ACHN renal = tested on: ACHN renal
# A549 NSCLC = tested on: A549 NSCLC
# RPMI-8226 leukemia = tested on: RPMI-8226 leukemia
# HL-60(TB) leukemia = tested on: HL-60(TB) leukemia
# IGROV1 ovarian = tested on: IGROV1 ovarian
# UACC-257 melanoma = tested on: UACC-257 melanoma
# SF-295 CNS = tested on: SF-295 CNS
# TK-10 renal = tested on: TK-10 renal
# OVCAR-4 ovarian = tested on: OVCAR-4 ovarian
# NCI-H460 lung = tested on: NCI-H460 lung
Compound,TGI (ACHN renal),TGI (A549 NSCLC),TGI (RPMI-8226 leukemia),TGI (HL-60(TB) leukemia),TGI (IGROV1 ovarian),TGI (UACC-257 melanoma) [µM],TGI (SF-295 CNS),TGI (TK-10 renal),TGI (OVCAR-4 ovarian) [µM],TGI (NCI-H460 lung),GI50 (ACHN renal),GI50 (A549 NSCLC),GI50 (RPMI-8226 leukemia),GI50 (HL-60(TB) leukemia),GI50 (OVCAR-4 ovarian),GI50 (NCI-H460 lung),GI50 (IGROV1 ovarian),GI50 (UACC-257 melanoma) [µM],GI50 (SF-295 CNS),GI50 (TK-10 renal)
COC(=O)C(=O)C(C#N)c1ccc(CC#N)cc1 (configuration not stated),> 100 µM,> 100 µM,> 100 µM,> 100 µM,> 100 µM,> 100,> 100 µM,> 100 µM,–,–,–,–,–,–,–,–,–,–,–,–
CCCC(C)C[C@@H](C)CC(C)/C=C(\C)c1oc(=O)c(C)c(O)c1C (some centres not stated) (tested in a mixture with another compound),17.9 µM,34 µM,–,29.8 µM,–,29.2,25.9 µM,33.7 µM,26.6,25.1 µM,–,–,–,–,–,–,–,–,–,–
CCCN1CCN(c2ccc3nc(-c4ccc5nc(-c6cc(OC)ccc6OC)[nH]c5c4)[nH]c3c2)CC1,3.06 µM,3.64 µM,4.79 µM,8.91 µM,30.3 µM,39.2,30.1 µM,–,3.85,3.56 µM,1.69 µM,1.85 µM,2.17 µM,3.12 µM,1.98 µM,1.91 µM,13.5 µM,20,15.7 µM,–
CC/C(=C(/CC)c1ccc(O)cc1)c1ccc([O-])cc1.CC/C(=C(/CC)c1ccc(O)cc1)c1ccc([O-])cc1.O=C([CH-]C(=O)c1ccccc1)c1ccccc1.O=C([CH-]C(=O)c1ccccc1)c1ccccc1.[Ti+4],72.8 µM,32.3 µM,> 100 µM,–,37.7 µM,35.9,35 µM,76.9 µM,> 100,25.8 µM,20.5 µM,7.99 µM,30.5 µM,–,24.8 µM,13.1 µM,16.1 µM,15.1,17.9 µM,30.2 µM
CCOC(=O)C1=C(Nc2ccc(Cl)cc2Cl)OC/C1=N\NS(=O)(=O)c1ccc(C)cc1,> 100 µM,> 100 µM,–,> 100 µM,> 100 µM,> 100,> 100 µM,> 100 µM,> 100,> 100 µM,–,–,–,–,–,–,–,–,–,–
CC[O-].CC[O-].O=C1C(c2ccccc2)=C([O-])c2ccccc21.O=C1C(c2ccccc2)=C([O-])c2ccccc21.[Ti+4],> 100 µM,> 100 µM,99.5 µM,> 100 µM,> 100 µM,> 100,> 100 µM,–,> 100,> 100 µM,> 100 µM,> 100 µM,30.3 µM,> 100 µM,> 100 µM,> 100 µM,> 100 µM,> 100,> 100 µM,–
Cc1nc2cc(N)c(F)cc2[nH]1,> 100 µM,> 100 µM,–,> 100 µM,> 100 µM,> 100,> 100 µM,> 100 µM,> 100,> 100 µM,–,–,–,–,–,–,–,–,–,–
Cc1ccc(/C=C/C(=O)c2sc(-c3cccnc3)nc2C)cc1,> 100 µM,> 100 µM,> 100 µM,> 100 µM,> 100 µM,> 100,> 100 µM,> 100 µM,–,> 100 µM,–,–,–,–,–,–,–,–,–,–
CC1(C)CCC[C@@]2(C)C1CC[C@H]1CC(O)C3(C)CCC12C3 (some centres not stated),31.8 µM,37.4 µM,72.6 µM,51.2 µM,50.6 µM,32.1,–,28.7 µM,31.9,32.8 µM,–,–,–,–,–,–,–,–,–,–
Nc1ncn(C2C=C(CO)C(O)C2O)c(=O)n1 (configuration not stated),> 100 µM,> 100 µM,> 100 µM,> 100 µM,> 100 µM,> 100,–,> 100 µM,> 100,> 100 µM,–,–,–,–,–,–,–,–,–,–
Nc1cc(-c2cccc(OC(F)(F)F)c2)nc2ccc(N3CCCC3)cc12,26 µM and > 100 µM,18.6 µM and > 100 µM,7.32 µM and > 33.2 µM and > 64.9 µM,0.0888 µM and 0.0712 µM and 0.32 µM,25.3 µM and > 100 µM,–,5.61 µM and 18.9 µM and > 50.5 µM,34.6 µM and > 100 µM,> 100,12.5 µM and > 100 µM,0.0903 µM and 0.101 µM and 0.107 µM,0.137 µM and 0.0852 µM and 0.0836 µM,0.0479 µM and 0.0404 µM and 0.0447 µM,0.0303 µM and 0.0249 µM and 0.0248 µM,0.519 µM and 1.16 µM and 1.59 µM,0.0354 µM and 0.0359 µM,0.0698 µM and 0.0623 µM and 0.0793 µM,–,0.0584 µM and 0.0473 µM and 0.0448 µM,9.57 µM and 13 µM and > 23.5 µM
O=S(=O)(c1ccc(N=C2NN=C(c3c[nH]c4ccccc34)CS2)cc1)N1CCOCC1,> 100 µM,> 100 µM,76.9 µM,> 100 µM,> 100 µM,> 100,–,> 100 µM,> 100,> 100 µM,88.6 µM,8.68 µM,3.72 µM,2.25 µM,15.6 µM,5.04 µM,> 100 µM,9.54,–,26.3 µM
O=c1[nH]c2c3ccccc3ccc2c2cc3c(cc12)OCO3,> 100 µM,> 100 µM,> 100 µM,–,> 100 µM,> 100,> 100 µM,> 100 µM,> 100,> 100 µM,–,–,–,–,–,–,–,–,–,–
COc1cc2cc(C(=O)Nc3cc(N)c4ccccc4c3CCCl)[nH]c2c(OC)c1OC,0.13 µM,> 50 µM,0.189 µM,0.237 µM,3.51 µM,–,> 16.5 µM,6.36 µM,0.325,0.0396 µM,0.0184 µM,0.116 µM,< 0.021 µM,0.0361 µM,0.0733 µM,0.00913 µM,0.0146 µM,–,0.016 µM,0.0932 µM
Cc1cc(C)nc(NS(=O)(=O)c2ccc(Nc3c4ccc(Cl)cc4nc4c(C(=O)Nc5ccc(S(=O)(=O)N=C(N)N)cc5)cccc34)cc2)n1,> 100 µM,–,> 100 µM,–,–,> 100,> 100 µM,> 100 µM,> 100,> 100 µM,–,–,–,–,–,–,–,–,–,–
CC(=O)N/C(=C\c1cccc([N+](=O)[O-])c1)c1nc2c3c(ccc2[nH]1)C(=O)c1ccccc1C3=O,47.9 µM,> 100 µM,> 100 µM,59.8 µM,> 100 µM,–,> 100 µM,> 100 µM,> 100,> 100 µM,–,–,–,–,–,–,–,–,–,–
Cc1cc2cc3c(C)cc(=O)oc3c(C)c2o1,> 100 µM,> 100 µM,> 100 µM,> 100 µM,> 100 µM,> 100,> 100 µM,–,> 100,> 100 µM,–,–,–,–,–,–,–,–,–,–
COc1ccc2c(c1)CCc1[nH]c3ccccc3c1CCCC2,> 10 µM,> 10 µM,> 10 µM,> 10 µM,> 10 µM,> 10,> 10 µM,> 10 µM,> 10,–,–,–,–,–,–,–,–,–,–,–
